Like-named read-outs stand apart in the source and are kept apart here.
Tests used:
[1] = system: NCI-H929 (ATCC CRL-9068) cells; test: NCI-H929 cell proliferation assay (CellTiter-Glo); format: cell-based; details: 72 h of compound treatment
Protocol: Cell proliferation was measured using the CellTiter-Glo® Luminescent Cell Viability Assay. The assay involved the addition of a single reagent (CellTiter-Glo® Reagent) directly to cells cultured in serum-supplemented medium.
Each compound evaluated was prepared as a DMSO stock solution (10 mM). Compounds were tested in duplicate on each plate, with a 10-point serial dilution curve (1:3 dilution). Compound treatment ([…]) was added from the compound dilution plate to the cell plate. The highest compound concentration was 10 μM (final), with a 0.1% final DMSO concentration. Plates were then incubated at 37° C., 5% CO2. After 72 h of compound treatment, cell plates were equilibrated at rt for approximately 30 mins. An equi-volume amount of CellTiter-Glo® Reagent (40 μL) was added to each well. Plates were mixed for 2 mins on an orbital shaker to induce cell lysis and then incubated at rt for 10 mins to stabilize the luminescent signal. Luminescence was recorded using an Envision plate reader according to CellTiter-Glo protocol. IC50 of each compound was calculated using GraphPad Prism by nonlinear regression analysis.

Mcl-1 = Mcl-1 (Homo sapiens, UniProt Q07820); test: Mcl-1 Homogeneous Time Resolved Fluorescence (HTRF) binding assay
Sequence of Mcl-1 (Q07820 whole entry): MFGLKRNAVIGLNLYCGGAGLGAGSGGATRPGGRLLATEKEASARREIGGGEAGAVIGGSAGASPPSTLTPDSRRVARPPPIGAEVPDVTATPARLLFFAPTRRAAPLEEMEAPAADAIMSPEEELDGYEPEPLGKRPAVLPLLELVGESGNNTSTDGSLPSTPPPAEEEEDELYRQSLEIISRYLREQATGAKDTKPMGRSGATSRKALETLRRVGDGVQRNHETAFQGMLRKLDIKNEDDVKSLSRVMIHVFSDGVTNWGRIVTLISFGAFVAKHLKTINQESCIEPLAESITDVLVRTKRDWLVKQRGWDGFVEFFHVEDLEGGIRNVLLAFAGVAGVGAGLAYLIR

[2] = HTRF, 4 nM Mcl-1, 100 nM FAM-Bak peptide, 10-dose, singlicate, read-out: Mcl-1 IC50

| IC50 ([1]; Homo sapiens) [µM] | IC50 (Mcl-1; Mcl-1 IC50 (nM)) [nM] | Compound | IC50 [1] [µM] | IC50 (Mcl-1; [2]) [nM] | IC50 ([1]; Homo sapiens, NCI-H929, 72 h) [µM] |
| --- | --- | --- | --- | --- | --- |
|  |  | Cn1nc2cc1CSc1cc(c3ccccc3c1)OCCCc1c(C(=O)O)n(C)c3c(c(Cl)ccc13)-c1c(nn(C)c1C#N)CSC2 (single isomer, unassigned) [Example 1A, (Z)-1^6-Chloro-2^5-cyano-1^1,2^1,6^1-trimethyl-1^1H,2^1H,6^1H-10-oxa-4,8-dithia-1(7,3)-indola-2(4,3),6(3,5)-dipyrazola-9(3,1)-naphthalenacyclotridecaphane-1^2-carboxylic acid] | 0.1 to 1 | < 10 |  |
|  |  | Cn1nc2cc1CSc1cc(c3ccccc3c1)OCCCc1c(C(=O)O)n(C)c3c(c(Cl)ccc13)-c1c(nn(C)c1C#N)CSC2 (single isomer, unassigned) [Example 1B, (Z)-1^6-Chloro-2^5-cyano-1^1,2^1,6^1-trimethyl-1^1H,2^1H,6^1H-10-oxa-4,8-dithia-1(7,3)-indola-2(4,3),6(3,5)-dipyrazola-9(3,1)-naphthalenacyclotridecaphane-1^2-carboxylic acid] | > 1 | > 100 |  |
|  |  | Cn1nc2cc1CSc1cc(c3ccccc3c1)OCCCc1c(C(=O)O)n(C)c3c(c(Cl)ccc13)-c1c(nn3c1CCCC3)CSC2 (single isomer, unassigned) [Example 2A, (Z)-1^6-Chloro-1^1,6^1-dimethyl-2^4,2^5,2^6,2^7-tetrahydro-1^1H,6^1H-10-oxa-4,8-dithia-2(3,2)-pyrazolo[1,5-a]pyridina-1(7,3)-indola-6(3,5)-pyrazola-9(3,1)-naphthalenacyclotridecaphane-1^2-carboxylic acid] | < 0.1 | < 10 |  |
|  |  | Cn1nc2cc1CSc1cc(c3ccccc3c1)OCCCc1c(C(=O)O)n(C)c3c(c(Cl)ccc13)-c1c(nn3c1CCCC3)CSC2 (single isomer, unassigned) [Example 2B, (Z)-1^6-Chloro-1^1,6^1-dimethyl-2^4,2^5,2^6,2^7-tetrahydro-1^1H,6^1H-10-oxa-4,8-dithia-2(3,2)-pyrazolo[1,5-a]pyridina-1(7,3)-indola-6(3,5)-pyrazola-9(3,1)-naphthalenacyclotridecaphane-1^2-carboxylic acid] | > 1 | 10 to 100 |  |
|  |  | Cn1nc2cc1CSc1cc(c3ccccc3c1)OCCCc1c(C(=O)O)n(C)c3c(c(Cl)ccc13)-c1c(nn3c1CCC3)CSC2 (single isomer, unassigned) [Example 3A, (Z)-1^6-Chloro-1^1,6^1-dimethyl-2^5,2^6-dihydro-1^1H,2^4H,6^1H-10-oxa-4,8-dithia-1(7,3)-indola-2(3,2)-pyrrolo[1,2-b]pyrazola-6(3,5)-pyrazola-9(3,1)-naphthalenacyclotridecaphane-1^2-carboxylic acid] | < 0.1 | < 10 |  |
|  |  | Cn1nc2cc1CSc1cc(c3ccccc3c1)OCCCc1c(C(=O)O)n(C)c3c(c(Cl)ccc13)-c1c(nn3c1CCC3)CSC2 (single isomer, unassigned) [Example 3B, (Z)-1^6-Chloro-1^1,6^1-dimethyl-2^5,2^6-dihydro-1^1H,2^4H,6^1H-10-oxa-4,8-dithia-1(7,3)-indola-2(3,2)-pyrrolo[1,2-b]pyrazola-6(3,5)-pyrazola-9(3,1)-naphthalenacyclotridecaphane-1^2-carboxylic acid] | > 1 | 10 to 100 |  |
|  |  | Cn1nc2cc1CSc1cc(c3ccccc3c1)OCCCc1c(C(=O)O)n(C)c3c(c(Cl)ccc13)-c1c(nn3c1COCC3)CSC2 (single isomer, unassigned) [Example 4A, (Z)-1^6-Chloro-1^1,6^1-dimethyl-2^6,2^7-dihydro-1^1H,2^4H,6^1H-10-oxa-4,8-dithia-2(3,2)-pyrazolo[5,1-c][1,4]oxazina-1(7,3)-indola-6(3,5)-pyrazola-9(3,1)-naphthalenacyclotridecaphane-1^2-carboxylic acid] | 0.1 to 1 | < 10 |  |
|  |  | Cn1nc2cc1CSc1cc(c3ccccc3c1)OCCCc1c(C(=O)O)n(C)c3c(c(Cl)ccc13)-c1c(nn3c1COCC3)CSC2 (single isomer, unassigned) [Example 4B, (Z)-1^6-Chloro-1^1,6^1-dimethyl-2^6,2^7-dihydro-1^1H,2^4H,6^1H-10-oxa-4,8-dithia-2(3,2)-pyrazolo[5,1-c][1,4]oxazina-1(7,3)-indola-6(3,5)-pyrazola-9(3,1)-naphthalenacyclotridecaphane-1^2-carboxylic acid] | > 1 | 10 to 100 |  |
|  |  | Cn1nc2cc1CSc1cc(c3ccccc3c1)OCCCc1c(C(=O)O)n(C)c3c(c(Cl)ccc13)-c1c(nn3c1CSC3)CSC2 (single isomer, unassigned) [Example 5A, (Z)-1^6-Chloro-1^1,6^1-dimethyl-1^1H,2^4H,2^6H,6^1H-10-oxa-4,8-dithia-2(3,2)-pyrazolo[1,5-c]thiazola-1(7,3)-indola-6(3,5)-pyrazola-9(3,1)-naphthalenacyclotridecaphane-1^2-carboxylic acid] | 0.1 to 1 | < 10 |  |
|  |  | Cn1nc2cc1CSc1cc(c3ccccc3c1)OCCCc1c(C(=O)O)n(C)c3c(c(Cl)ccc13)-c1c(nn3c1CSC3)CSC2 (single isomer, unassigned) [Example 5B, (Z)-1^6-Chloro-1^1,6^1-dimethyl-1^1H,2^4H,2^6H,6^1H-10-oxa-4,8-dithia-2(3,2)-pyrazolo[1,5-c]thiazola-1(7,3)-indola-6(3,5)-pyrazola-9(3,1)-naphthalenacyclotridecaphane-1^2-carboxylic acid] | > 1 | > 100 |  |
|  |  | Cc1[nH]nc2c1-c1c(Cl)ccc3c(c(C(=O)O)n(C)c13)CCCOc1cc(cc3ccccc13)SCc1cc(nn1C)CSC2 (single isomer, unassigned) [Example 6A, (Z)-1^6-Chloro-1^1,2^5,6^1-trimethyl-1^1H,2^1H,6^1H-10-oxa-4,8-dithia-1(7,3)-indola-2(4,3),6(3,5)-dipyrazola-9(3,1)-naphthalenacyclotridecaphane-1^2-carboxylic acid] | < 0.1 | < 10 |  |
|  |  | Cc1[nH]nc2c1-c1c(Cl)ccc3c(c(C(=O)O)n(C)c13)CCCOc1cc(cc3ccccc13)SCc1cc(nn1C)CSC2 (single isomer, unassigned) [Example 6B, (Z)-1^6-Chloro-1^1,2^5,6^1-trimethyl-1^1H,2^1H,6^1H-10-oxa-4,8-dithia-1(7,3)-indola-2(4,3),6(3,5)-dipyrazola-9(3,1)-naphthalenacyclotridecaphane-1^2-carboxylic acid] | > 1 | 10 to 100 |  |
|  |  | Cc1[nH]nc2c1-c1c(F)ccc3c(c(C(=O)O)n(C)c13)CCCOc1cc(cc3ccccc13)SCc1cc(nn1C(C)C)CSC2 (single isomer, unassigned) [Example 7B, (Z)-1^6-Fluoro-6^1-isopropyl-1^1,2^5-dimethyl-1^1H,2^1H,6^1H-10-oxa-4,8-dithia-1(7,3)-indola-2(4,3),6(3,5)-dipyrazola-9(3,1)-naphthalenacyclotridecaphane-1^2-carboxylic acid] |  | < 10 |  |
|  |  | Cc1[nH]nc2c1-c1c(Cl)ccc3c(c(C(=O)O)n(C)c13)CCCOc1cc(cc3ccccc13)SCc1cc(nn1C(C)C)CSC2 (single isomer, unassigned) [Example 9A, (Z)-1^6-Chloro-6^1-isopropyl-1^1,2^5-dimethyl-1^1H,2^1H,6^1H-10-oxa-4,8-dithia-1(7,3)-indola-2(4,3),6(3,5)-dipyrazola-9(3,1)-naphthalenacyclotridecaphane-1^2-carboxylic acid] |  | < 10 | 0.1 to 1 |
|  |  | Cc1c2c(nn1C)CSCc1cc(n(C(C)C)n1)CSc1cc(c3ccccc3c1)OCCCc1c(C(=O)O)n(C)c3c-2c(Cl)ccc13 (single isomer, unassigned) [Example 10A, (Z)-1^6-Chloro-6^1-isopropyl-1^1,2^1,2^5-trimethyl-1^1H,2^1H,6^1H-10-oxa-4,8-dithia-1(7,3)-indola-2(4,3),6(3,5)-dipyrazola-9(3,1)-naphthalenacyclotridecaphane-1^2-carboxylic acid] |  | < 10 | < 0.1 |
| < 0.1 | < 10 | Cc1c2c(nn1C)CSCc1cc(n[nH]1)CSc1cc(c3ccccc3c1)OCCCc1c(C(=O)O)n(C)c3c-2c(Cl)ccc13 (single isomer, unassigned) [Example 11B, (Z)-1^6-Chloro-1^1,2^1,2^5-trimethyl-1^1H,2^1H,6^1H-10-oxa-4,8-dithia-1(7,3)-indola-2(4,3),6(3,5)-dipyrazola-9(3,1)-naphthalenacyclotridecaphane-1^2-carboxylic acid] |  |  |  |
|  |  | (Z)-2^5-(tert-Butoxycarbonyl)-1^6-chloro-1^1,6^1-dimethyl-2^4,2^5,2^6,2^7-tetrahydro-1^1H,6^1H-10-oxa-4,8-dithia-2(3,2)-pyrazolo[1,5-a]pyrazina-1(7,3)-indola-6(3,5)-pyrazola-9(3,1)-naphthalenacyclotridecaphane-1^2-carboxylic acid [Example 22A] | 0.1 to 1 |  |  |
|  |  | (Z)-2^5-(tert-Butoxycarbonyl)-1^6-chloro-1^1,6^1-dimethyl-2^4,2^5,2^6,2^7-tetrahydro-1^1H,6^1H-10-oxa-4,8-dithia-2(3,2)-pyrazolo[1,5-a]pyrazina-1(7,3)-indola-6(3,5)-pyrazola-9(3,1)-naphthalenacyclotridecaphane-1^2-carboxylic acid [Example 22B] | > 1 |  |  |
|  |  | (Z)-6^1-Ethyl-1^6-fluoro-1^1,2^1,2^3-trimethyl-1^1H,2^1H,6^1H-10-oxa-4,8-dithia-1(7,3)-indola-2(4,5),6(3,5)-dipyrazola-9(3,1)-naphthalenacyclotridecaphane-1^2-carboxylic acid [Example 15B] | > 1 |  |  |
